For series [1], the system named is transformed human vaginal epithelial cells (Episkin). Briefly: Cell survival test (MTT) with three-dimensional vaginal epithelium reconstructed in vitro. It counts as cell-based. How it is done: The potential skin irritation on the vaginal epithelium was evaluated in vitro by means of a cytotoxicity assay: cell survival test with three-dimensional vaginal epithelium reconstructed in vitro (MTT test). The three-dimensional cell model used in the test consists of 0.5 cm^2 diameter units of cultures of transformed human vaginal epithelial cells, maintained for 5 days in a chemically defined culture medium and in contact with air on inert polycarbonate filters. The model was purchased from Episkin® (Lyons, lot 16-HVE-015).
Sodium lauryl sulphate (SLS) dissolved at 0.5% by weight in a phosphate buffer (Euroclone) was used as a positive control. The phosphate buffer was used on its own as a negative control. Exposure took place for 1 and 6 hours at about 37° C., 5% CO2. At the end of exposure, the epithelium was washed with phosphate buffer. The epithelium was incubated for 3 h at 37° C. with a 1 mg/ml solution of MTT (3-[4,5-dimethylthiazol-2-yl]-2,5-diphenyltetrazoliumbromide).
The solution was subsequently removed and replaced with isopropanol, with […]
successive hours of incubation at room temperature. 2 aliquots of each epithelium were transferred into a 96-well plate for the absorbance reading, which was carried out at a wavelength of 570 nm with a Tecan Sunrise remote colorimeter, equipped with a plate reader.
Through the creation of a dose-response curve, the cytotoxicity data obtained with the MTT test (Table 5) make it possible to determine the theoretical value of ET50, that is, the time in minutes that induces a 50% reduction in cell viability in the epithelium compared to untreatedcells.

Series [2] relates to bacterial vaginosis. Conditions: at 3 months; cited from earlier work.

With `CCCCCCCCCCCCOS(=O)(=O)[O-].[Na+]` [Positive control, Sodium lauryl sulphate], in series [1] (MTT, 1 h exposure, reconstructed human vaginal epithelium), the “% mean cell viability 1 h treatment” value was determined as 8.26%. The “% mean cell viability 6 h treatment” value in series [1] (MTT, 6 h exposure, reconstructed human vaginal epithelium) came out at 6.54%. In series [1] (time that induces a 50% reduction in cell viability compared to untreated cells), the ET50 is 32.70 min.
As for `Cc1ncc([N+](=O)[O-])n1CCO` [metronidazole], the risk of relapse in series [2] is listed as 33 % of women.

These data come from patent publication US11857570B2, “Natural composition for use in gynecology” (Organicare LLC, priority 2017, dated 2024).
